{"source": "paper PMC6560211", "about": "“ApoAI-derived peptide increases glucose tolerance and prevents formation of atherosclerosis in mice” (Diabetologia, 2019)", "tested_on": "Apoe−/− mice", "assay": "Atherosclerosis model, western diet", "format": "in vivo, mouse", "conditions": "female Apoe−/− mice, i.p. three times a week for 6 weeks, RG54 12 mg/kg, ApoA-I 14 mg/kg, liraglutide 0.3 mg/kg, Oil Red O, n=9, vs NaCl", "source_text": "Female Apoe^−/− mice (002052, Jackson Laboratory, Bar Harbor, ME, USA) at 12 weeks of age were acclimatised for 1 week, then changed to the RD western diet (D12079B) and injected i.p. three times per week for 6 weeks with treatments as indicated in ESM Fig. 1. At the end of the experimental period, the mice were euthanised and whole aortas were collected, fixed and stained for analysis. See ESM Methods for more details.\nApoe^−/− mice, which develop aortic atherosclerosis, were used to test if RG54 reduces the formation of atherosclerotic plaques in vivo. Apoe^−/− mice were obtained at 12 weeks of age and acclimatised for 1 week, after which baseline body weights, dual-energy x-ray absorptiometry body scans and serum samples were collected. […] Serum lipid profiles were measured at the start and end of the experimental period (ESM Fig. 5).\nFig. 2 Effect of ApoA-I or RG54 treatment on early, low-burden atherosclerotic lesion development in Apoe^−/− mice. […] (a) Body weight was measured weekly (n=9). […] (d–f) After euthanasia the aortic arch and abdominal aorta were removed, fixed and prepared en face, then atherosclerotic plaques were stained using Oil Red O. Representative aorta images (d) shown as raw images and images analysed for Oil Red O stained areas. […] Stained areas were then quantified to give the total plaque area (e) and total plaques per aorta (f) (n=9). […]", "note": "No end group written: not given here.", "data": [{"substance": "Ac-AEYHAKATEHLSTLSEKAKPALEDLRQGLLPVLESFKVSFLSALEEYTKKLNTQ [RG54]", "values": [{"measurement": "number of plaques per mouse", "result": "significantly reduced"}, {"measurement": "total plaque area (percentage of the aortic surface)", "result": "significantly reduced"}]}]}
